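Each compound was tested at five concentrations against cells in 96-well plates for 48 hours. GI50 marks 50% less growth. TGI is the concentration that stops growth completely.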

We go through 35 molecules from PubChem BioAssay (NCI).

Holding throughout (assay): DTP human tumour cell line panel, 48 h
The test system of test [1] is SK-MEL-28 melanoma.
In test [2] the test system is PC-3 prostate.
The subject of test [3] is T-47D breast.
In test [4] the test system is LOX IMVI melanoma.
The test system of test [5] is SR leukemia.
Test [6] relates to M14 melanoma.
Test [7] relates to SF-295 CNS.
Test [8] relates to UACC-257 melanoma.
Test [9] concerns HL-60(TB) leukemia.

For `O=C1[C@H](O)[C@@H]2C(O)O[C@H]3[C@@H]2N1C[C@H]3[Si](c1ccccc1)(c1ccccc1)c1ccccc1` (stereo partly specified), the TGI in test [1], in test [2], in test [3], in test [4], in test [5] and in test [6] was more than 100 µM each time. The TGI in [7] and in [8] was more than 100 µM throughout.
For the molecule `O=C(Nc1ccccc1)N(C1=NCC(CI)S1)c1ccc(F)c(F)c1` (stereo unspecified), the TGI in [1] was 38.4 µM; in test [2], more than 100 µM; in test [3], more than 100 µM; in [4], 34 µM; in [5] it was more than 100 µM; in test [9] it was 79.4 µM. The TGI in test [7] and in [8] was more than 100 µM throughout.
For the molecule `CN1CCC(CNc2cc(C3(C(=O)Nc4cc(C(=O)Nc5ccc(Cl)c(C(F)(F)F)c5)ccc4F)CC3)ncn2)CC1`, in [2], the GI50 is 1.04 µM and the TGI is 3.3 µM. In [3], the GI50 was 4.14 µM and the TGI was 26.8 µM.
Turning to `CC(=O)Nc1ccc2c(C)c3c(nc2n1)[nH]c1ccccc13`, the TGI is more than 100 µM in test [2]; 55.5 µM in test [3]; 37.9 µM in test [4]; 64.9 µM in test [5]; 82.2 µM in test [6]; 78.8 µM in test [7]. For the same molecule, the TGI in test [8] is more than 100 µM.
In the case of `CCn1nc(C)c2c1C(=O)NCC(=O)N2`, the TGI in test [1], in [2], in test [6], in test [7] and in [8] was more than 100 µM throughout.
Regarding `CNC(C)(C)Cc1ccc(Cl)cc1`, the TGI in test [1], in test [4], in test [6], in test [7] and in [8] was more than 100 µM each time.
Take `N#CCCN(CCC#N)c1ccc(/C=C2\N=C(c3ccccc3)N(c3ccc(F)cc3)C2=O)cc1`: the TGI in [1], in test [2], in test [3], in test [4], in test [5] and in [6] was more than 100 µM in each case. Further, the TGI in test [7] and in test [8] was more than 100 µM each time.
Consider `[N-]=[N+]=Nc1c(Cc2ccccc2)c(Cl)nc2ccccc12`, for which the TGI is more than 100 µM in test [1]; more than 100 µM in test [2]; more than 100 µM in [3]; 38.5 µM in test [4]; 49.4 µM in test [6]; 56.6 µM in [9]. In addition, the TGI in [7] is 62.1 µM; in test [8] it was more than 100 µM.
Turning to `NC(=O)Nc1c(Cl)cc(S(N)(=O)=O)cc1Cl`, the TGI in [1], in [4], in [6], in test [9], in [7] and in [8] was more than 100 µM in each case.
Turning to `CC(C)(C)c1ccccc1N1C(=O)c2ccc3c4c(ccc(c24)C1=O)N(c1ccccc1C(C)(C)C)C3=O`, the TGI in [1], in [2], in [5], in [6], in test [7] and in test [8] was more than 100 µM each time.
For `c1ccc(/C(=N/Nc2nc3ccccc3s2)C2CCCCC2)nc1`, the concentration for total growth inhibition (TGI) in [1] was 25.8 µM; in [2], 24.3 µM; in [3], 15.5 µM; in test [4] it was 54.3 µM; in test [5], 16.8 µM; in [6] it was 27.7 µM. Besides, the values for the TGI in test [7] and in [8] were 29.9 µM and 17.5 µM, respectively.
Turning to `Cn1nc2ccc([N+](=O)[O-])c(Cn3nnc4ccccc43)c2n1`, the TGI in [1], in [3], in test [4], in [6], in [9] and in test [7] was more than 100 µM in each case. This molecule also gave a TGI in test [8] of more than 100 µM.
For `O=c1[nH]/c(=C/c2ccc(OCc3ccccc3)cn2)c(=O)[nH]/c1=C/c1ccccc1`, the TGI in test [1] is more than 100 µM; in test [2], more than 100 µM; in test [3], more than 100 µM; in test [4], more than 100 µM; in test [5], 14.4 µM; in test [6] it was more than 100 µM. The TGI in [7] and in test [8] was more than 100 µM in each case.
As to `C#CCNC(CSSCC(N)C(=O)O)C(=O)O` (stereo unspecified), the TGI in test [1], in [2], in test [3], in [6], in test [7] and in test [8] was more than 100 µM each time.
In the case of `Cn1c(=O)c2[nH]c(N/N=N/c3nncs3)nc2n(C)c1=O`, the TGI in test [1], in test [2], in test [3], in test [4], in test [6] and in [7] was more than 100 µM throughout. This molecule yielded a TGI in test [8] of more than 100 µM.
On to `COc1ccc(N2CC(=O)N(C(=O)COc3ccc(OCC(=O)N4C(=O)CN(c5ccc(OC)cc5)C4=S)cc3)C2=S)cc1`, for which the TGI in [1], in test [2], in test [6], in test [7] and in [8] was more than 100 µM throughout.
For `O=C(O)CC(Cc1ccccc1Cl)C(=O)O` (stereo unspecified), the TGI in test [1], in test [2], in test [3], in [4], in test [6] and in [7] was more than 100 µM each time. In [8], this molecule yielded a TGI of more than 100 µM.
With `CC1=NNC(=O)C1C1C(=O)NN=C(c2c[nH]c3ccccc23)C1Br` (stereo unspecified), the TGI in [1], in [2], in test [3], in test [4], in test [6] and in [9] was more than 100 µM throughout. Further, the TGI in [7] is 54.7 µM; in test [8] it was more than 100 µM.
As for `CCO/C(=N/S(=O)(=O)C(F)(F)F)N(C(C)C)C(C)C`, the TGI in test [1], in test [2], in test [3], in [4], in [6] and in test [9] was more than 100 µM each time. Besides, in test [8], the TGI was more than 100 µM.
Take `CSc1ncc2c(n1)C(C#N)C1Sc3ccccc3N1C2=O` (stereo unspecified): the TGI in [1], in [3], in test [4], in test [6], in test [7] and in test [8] was more than 100 µM throughout.
On to `CC(=O)NC1C(OCc2ccccc2)OC(CO)C(O)C1OCC(=O)N1CCCC1C(=O)N[C@@H](CCC(=O)NCCCCNc1c2ccccc2nc2cccc([N+](=O)[O-])c12)C(N)=O` (stereo partly specified), for which the TGI in test [1] was more than 100 µM; in test [2], 60.3 µM; in test [3] it was more than 100 µM; in [5] it was more than 100 µM; in test [6], 40.5 µM; in [7], more than 100 µM.
In the case of `N#Cc1c(-c2ccc(Cl)cc2)c2c(nn3c4ccc5ccccc5c4nnc23)[nH]c1=O`, the TGI in test [1] is 5.28 µM; in test [2], 7 µM; in test [3] it was 2.66 µM; in test [4] it was 4.18 µM; in [6], 6.14 µM; in test [9], more than 100 µM. In addition, the figures for the TGI in [7] and in test [8] were 5.47 µM and 18.8 µM, respectively.
For `C[C@@H]1OC(=O)C[C@H]2CC(=O)N(CCC3CN(C(=O)OCc4ccccc4)c4ccccc43)C[C@@H]21` (stereo partly specified), the TGI in [1], in test [2], in test [3], in test [6], in [7] and in test [8] was more than 100 µM each time.
`CCN(CCCOc1ccccc1)CCN(CC)CCCOc1ccccc1`: the TGI came to 36.7 µM in [1]; 5.14 µM in [2]; 27.9 µM in test [4]; 26.6 µM in [5]; 34.6 µM in test [6]; 25.4 µM in test [9]. Further, the TGI in [7] was determined as 41 µM; in test [8], 31.5 µM.
Consider `CCCCN(CCCC)Cc1cc(Nc2ccnc3cc(Cl)ccc23)ccc1O`, for which the GI50 in test [1] was 43.1 µM; in test [2], 5.73 µM; in [3], 35.9 µM; in [4], 2.81 µM; in [5] it was 6.59 µM; in [9], 5.88 µM. Further, the GI50 in test [8] was 40.1 µM. For the same molecule, the TGI in [1], in test [2], in test [3], in [4], in [5] and in test [9] was more than 100 µM in each case. Also, the TGI in test [8] is more than 100 µM.
For the molecule `CCOC(=O)C(C#N)(Cc1c[nH]c2ccccc12)NC(C)=O` (stereo unspecified), the TGI in test [1], in test [4], in test [6], in test [9], in test [7] and in [8] was more than 100 µM in each case.
For `O=S1(=O)c2ccccc2Oc2ccc(C(/C=N/O)=N/O)cc21`, the total growth inhibition concentration (TGI) in test [1] is more than 100 µM; in [2], more than 100 µM; in test [3], 35.6 µM; in test [4], 41.5 µM; in test [6], more than 100 µM; in test [9], 47.3 µM. In addition, in [7], the TGI stood at 51.2 µM.
`C=CCn1c(=O)c(C)cn(COCCO)c1=O`: the total growth inhibition concentration (TGI) in [1], in test [2], in [3], in [4], in [6] and in test [8] was more than 100 µM each time.
On to `C[C@H](c1ccccc1)N1C(=O)[C@@H](O)[C@H]1[C@H](CO)OCc1ccccc1`, for which the TGI in [1], in [2], in [4], in test [5], in test [6] and in test [7] was more than 100 µM each time. Also, the TGI in test [8] is more than 100 µM.
For `O=c1[nH]cc(NCCCl)c(=O)[nH]1`, the TGI in test [1], in [2], in test [3], in test [4], in test [5] and in test [6] was more than 100 µM throughout. The TGI in test [7] and in test [8] was more than 100 µM throughout.
Take `CCOC(=O)c1ccc(-n2[nH]nc(C(N)=O)c2=O)cc1`: the TGI in test [1], in test [2], in [3], in test [6], in test [7] and in test [8] was more than 100 µM throughout.
With `CN(C)CC(O)c1ccc(Cl)c2ccccc12` (stereo unspecified), the TGI in [1] was 36.3 µM; in [2], more than 72.3 µM; in test [3] it was 84.4 µM; in test [4], more than 66.6 µM; in [6], 33 µM; in [9] it was more than 78 µM. The TGI was more than 63.6 µM in [7] and 38.2 µM in test [8].
For the molecule `Cc1ccc2c(c1)-c1nc(N)c(C#N)c(-c3ccc(Cl)cc3)c1CCS2(=O)=O`, the TGI in [1] was more than 100 µM; in test [2], more than 100 µM; in test [3] it was more than 100 µM; in [4] it was more than 100 µM; in [5], 65.6 µM; in test [9] it was 47 µM. Moreover, the TGI in test [8] was more than 100 µM.
As for `CN(C)CCNc1ccc2c(=O)n(CCN(C)C)c(=O)n3c4ccc(O)cc4c(=O)c1c23`, the TGI in test [1] was 0.863 µM; in [2] it was 4.52 µM; in [3], 0.717 µM; in test [4], 0.217 µM; in test [5], less than 0.01 µM; in test [6], 1.86 µM. The TGI in [7] amounted to 0.148 µM; in [8] it was 0.795 µM.
With `O=C(/C=C(/C=C/c1ccc2[nH]ccc2c1)OB(F)F)/C=C/c1ccc2[nH]ccc2c1`, the GI50 in test [2] is 1.49 µM; in test [3] it was 1.99 µM; in [5], 0.451 µM; in test [9] it was 1.88 µM; in test [7], 2.28 µM; in test [8], 12.2 µM. For the same molecule, the TGI in test [2], in test [3], in test [5], in [9], in test [7] and in test [8] was more than 100 µM in each case.

The TGI is the concentration at which net growth stops. As usually defined, the GI50 is the concentration at which growth is held to half of that of the control.
